Where “and” joins values, the source holds several entries; their conditions need not be identical. Equal entries are not always repeated.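 The compound was tested at five concentrations on cells cultured in 96-well plates, with a 48-hour exposure period. Here, GI50 denotes the concentration required for 50% inhibition of growth.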 Calls of active or inactive are those of the source. No stated cut-off is given here; in the data, active = GI50 up to about 1.1 µM and inactive = higher.
Experiments:
Test in all cases: growth of human tumour cells (NCI), 48 h
786-0 = tested on: 786-0
A549 = tested on: A549
ACHN = tested on: ACHN
BT-549 = tested on: BT-549
CAKI-1 = tested on: CAKI-1
CCRF-CEM = tested on: CCRF-CEM
COLO 205 = tested on: COLO 205
DU-145 = tested on: DU-145
EKVX = tested on: EKVX
HCC 2998 = tested on: HCC 2998
HCT-116 = tested on: HCT-116
HCT-15 = tested on: HCT-15
HOP-62 = tested on: HOP-62
HOP-92 = tested on: HOP-92
HT-29 = tested on: HT-29
Hs-578T = tested on: Hs-578T
IGROV-1 = tested on: IGROV-1
K562 = tested on: K562
KM12 = tested on: KM12
LOX IMVI = tested on: LOX IMVI
M14 = tested on: M14
MCF7 = tested on: MCF7
MDA-MB-231 = tested on: MDA-MB-231
MDA-MB-435 = tested on: MDA-MB-435
MOLT-4 = tested on: MOLT-4
Malme-3M = tested on: Malme-3M
NCI-H226 = tested on: NCI-H226
NCI-H23 = tested on: NCI-H23
NCI-H460 = tested on: NCI-H460
NCI-H522 = tested on: NCI-H522
NCI/ADR-RES = tested on: NCI/ADR-RES
OVCAR-3 = tested on: OVCAR-3
OVCAR-4 = tested on: OVCAR-4
OVCAR-5 = tested on: OVCAR-5
OVCAR-8 = tested on: OVCAR-8
RXF 393 = tested on: RXF 393
SF-268 = tested on: SF-268
SF-295 = tested on: SF-295
SF-539 = tested on: SF-539
SK-MEL-28 = tested on: SK-MEL-28
SK-MEL-2 = tested on: SK-MEL-2
SK-MEL-5 = tested on: SK-MEL-5
SK-OV-3 = tested on: SK-OV-3
SN12C = tested on: SN12C
SNB-19 = tested on: SNB-19
SNB-75 = tested on: SNB-75
SR = tested on: SR
SW-620 = tested on: SW-620
T47D = tested on: T47D
TK-10 = tested on: TK-10
U-251 = tested on: U-251
UACC-257 = tested on: UACC-257
UACC-62 = tested on: UACC-62
UO-31 = tested on: UO-31
A498 = tested on: A498
HL-60 = tested on: HL-60
PC-3 = tested on: PC-3
RPMI-8226 = tested on: RPMI-8226
MDA-N = tested on: MDA-N

## CCOC(=O)c1c(-c2ccc(OC)cc2)ccn1C
786-0
  GI50: > 10 µM (inactive)
A549
  GI50: > 10 µM (inactive)
ACHN
  GI50: > 10 µM (inactive)
BT-549
  GI50: > 10 µM (inactive)
CAKI-1
  GI50: > 10 µM (inactive)
CCRF-CEM
  GI50: > 10 µM (inactive)
COLO 205
  GI50: > 10 µM (inactive)
DU-145
  GI50: > 10 µM (inactive)
EKVX
  GI50: > 10 µM (inactive)
HCC 2998
  GI50: > 10 µM (inactive)
HCT-116
  GI50: > 10 µM (inactive)
HCT-15
  GI50: > 10 µM
HOP-62
  GI50: > 10 µM (inactive)
HOP-92
  GI50: > 10 µM (inactive)
HT-29
  GI50: > 10 µM (inactive)
Hs-578T
  GI50: > 10 µM (inactive)
IGROV-1
  GI50: > 10 µM (inactive)
K562
  GI50: > 10 µM (inactive)
KM12
  GI50: > 10 µM (inactive)
LOX IMVI
  GI50: 0.00227 µM (active)
M14
  GI50: > 10 µM (inactive)
MCF7
  GI50: > 10 µM (inactive)
MDA-MB-231
  GI50: > 10 µM (inactive)
MDA-MB-435
  GI50: > 10 µM (inactive)
MOLT-4
  GI50: > 10 µM (inactive)
Malme-3M
  GI50: > 10 µM (inactive)
NCI-H226
  GI50: > 10 µM (inactive)
NCI-H23
  GI50: > 10 µM (inactive)
NCI-H460
  GI50: > 10 µM (inactive)
NCI-H522
  GI50: > 9.62 µM (inactive)
NCI/ADR-RES
  GI50: > 10 µM (inactive)
OVCAR-3
  GI50: > 10 µM (inactive)
OVCAR-4
  GI50: > 10 µM (inactive)
OVCAR-5
  GI50: > 10 µM (inactive)
OVCAR-8
  GI50: > 10 µM (inactive)
RXF 393
  GI50: 9.1 µM (inactive)
SF-268
  GI50: > 8.41 µM (inactive)
SF-295
  GI50: > 10 µM (inactive)
SF-539
  GI50: 0.0975 µM (active)
SK-MEL-28
  GI50: 4.54 µM (inactive)
SK-MEL-2
  GI50: > 10 µM (inactive)
SK-MEL-5
  GI50: > 10 µM (inactive)
SK-OV-3
  GI50: > 10 µM (inactive)
SN12C
  GI50: > 10 µM (inactive)
SNB-19
  GI50: > 10 µM (inactive)
SNB-75
  GI50: > 10 µM (inactive)
SR
  GI50: > 10 µM (inactive)
SW-620
  GI50: > 10 µM (inactive)
T47D
  GI50: > 10 µM (inactive)
TK-10
  GI50: > 10 µM (inactive)
U-251
  GI50: > 10 µM (inactive)
UACC-257
  GI50: > 10 µM (inactive)
UACC-62
  GI50: > 10 µM (inactive)
UO-31
  GI50: > 10 µM (inactive)

## CC(C)(C)OC(=O)C1C(=O)NC(=O)CC1CC(OCc1ccccc1)C(OCc1ccccc1)C(COCc1ccccc1)OCc1ccccc1 (centres undefined)
A498
  GI50: > 100 µM (inactive)
BT-549
  GI50: 24.9 µM (inactive) and 14.6 µM (inactive)
DU-145
  GI50: > 100 µM (inactive) and 54 µM (inactive)
HCC 2998
  GI50: 30.8 µM (inactive) and 54.2 µM (inactive)
HOP-92
  GI50: 17.5 µM (inactive) and 13 µM (inactive)
HT-29
  GI50: 4.76 µM (inactive) and 8.24 µM (inactive)
Hs-578T
  GI50: 12 µM (inactive) and 23.8 µM (inactive)
OVCAR-3
  GI50: 24.8 µM (inactive) and 31.3 µM (inactive)
OVCAR-4
  GI50: 31.6 µM (inactive) and 21.1 µM (inactive)
OVCAR-5
  GI50: 35.6 µM (inactive) and 67.8 µM (inactive)
SF-295
  GI50: 54.8 µM (inactive) and 28.3 µM (inactive)
SNB-75
  GI50: 15 µM (inactive) and 11.1 µM (inactive)
T47D
  GI50: 29.3 µM (inactive)
TK-10
  GI50: > 100 µM (inactive)

## O=C1CCSSCCC(=O)Nc2ccccc2N1
786-0
  GI50: > 100 µM (inactive)
A498
  GI50: > 100 µM (inactive)
A549
  GI50: > 100 µM (inactive)
ACHN
  GI50: > 100 µM (inactive)
BT-549
  GI50: > 100 µM (inactive)
CAKI-1
  GI50: > 100 µM (inactive)
CCRF-CEM
  GI50: > 100 µM (inactive)
COLO 205
  GI50: > 100 µM (inactive)
DU-145
  GI50: > 100 µM (inactive)
EKVX
  GI50: > 100 µM (inactive)
HCT-116
  GI50: > 100 µM (inactive)
HCT-15
  GI50: > 100 µM
HL-60
  GI50: > 100 µM (inactive)
HOP-62
  GI50: > 100 µM (inactive)
HOP-92
  GI50: > 100 µM (inactive)
HT-29
  GI50: > 100 µM (inactive)
Hs-578T
  GI50: > 100 µM (inactive)
IGROV-1
  GI50: > 100 µM (inactive)
K562
  GI50: 53.5 µM (inactive)
KM12
  GI50: > 100 µM (inactive)
LOX IMVI
  GI50: > 100 µM (inactive)
M14
  GI50: > 100 µM (inactive)
MDA-MB-231
  GI50: > 100 µM (inactive)
MDA-MB-435
  GI50: > 100 µM (inactive)
MOLT-4
  GI50: 34 µM (inactive)
Malme-3M
  GI50: > 100 µM (inactive)
NCI-H226
  GI50: > 100 µM (inactive)
NCI-H23
  GI50: > 100 µM (inactive)
NCI-H460
  GI50: > 100 µM (inactive)
NCI-H522
  GI50: > 100 µM (inactive)
NCI/ADR-RES
  GI50: > 100 µM (inactive)
OVCAR-3
  GI50: > 100 µM (inactive)
OVCAR-4
  GI50: > 100 µM (inactive)
OVCAR-5
  GI50: > 100 µM (inactive)
OVCAR-8
  GI50: > 100 µM (inactive)
PC-3
  GI50: > 100 µM (inactive)
RPMI-8226
  GI50: > 100 µM (inactive)
RXF 393
  GI50: > 100 µM (inactive)
SF-268
  GI50: > 100 µM (inactive)
SF-295
  GI50: > 100 µM (inactive)
SF-539
  GI50: > 100 µM (inactive)
SK-MEL-28
  GI50: > 100 µM (inactive)
SK-MEL-2
  GI50: > 100 µM (inactive)
SK-MEL-5
  GI50: > 100 µM (inactive)
SK-OV-3
  GI50: > 100 µM (inactive)
SN12C
  GI50: > 100 µM (inactive)
SNB-19
  GI50: > 100 µM (inactive)
SR
  GI50: > 100 µM (inactive)
SW-620
  GI50: > 100 µM (inactive)
T47D
  GI50: > 100 µM (inactive)
TK-10
  GI50: > 100 µM (inactive)
U-251
  GI50: > 100 µM (inactive)
UACC-257
  GI50: > 100 µM (inactive)
UACC-62
  GI50: > 100 µM (inactive)
UO-31
  GI50: > 100 µM (inactive)

## COc1ccc2c(c1)CC1(O)COc3cc(OC)ccc3C1O2 (centres undefined)
786-0
  GI50: > 100 µM (inactive)
A498
  GI50: > 100 µM (inactive)
A549
  GI50: > 100 µM (inactive)
ACHN
  GI50: > 100 µM (inactive)
BT-549
  GI50: > 100 µM (inactive)
CAKI-1
  GI50: > 100 µM (inactive)
CCRF-CEM
  GI50: > 100 µM (inactive)
COLO 205
  GI50: > 100 µM (inactive)
DU-145
  GI50: > 100 µM (inactive)
EKVX
  GI50: > 100 µM (inactive)
HCC 2998
  GI50: 77.8 µM (inactive)
HCT-116
  GI50: > 100 µM (inactive)
HCT-15
  GI50: 96.2 µM
HOP-62
  GI50: > 100 µM (inactive)
HOP-92
  GI50: > 100 µM (inactive)
HT-29
  GI50: > 100 µM (inactive)
IGROV-1
  GI50: > 100 µM (inactive)
KM12
  GI50: > 100 µM (inactive)
LOX IMVI
  GI50: > 100 µM (inactive)
M14
  GI50: > 100 µM (inactive)
MCF7
  GI50: > 100 µM (inactive)
MDA-MB-231
  GI50: > 100 µM (inactive)
MDA-MB-435
  GI50: > 100 µM (inactive)
MDA-N
  GI50: > 100 µM (inactive)
MOLT-4
  GI50: 48.4 µM (inactive)
Malme-3M
  GI50: > 100 µM (inactive)
NCI-H226
  GI50: > 100 µM (inactive)
NCI-H23
  GI50: > 100 µM (inactive)
NCI-H522
  GI50: > 100 µM (inactive)
NCI/ADR-RES
  GI50: 68.9 µM (inactive)
OVCAR-3
  GI50: > 100 µM (inactive)
OVCAR-4
  GI50: 63.7 µM (inactive)
OVCAR-5
  GI50: > 100 µM (inactive)
OVCAR-8
  GI50: > 100 µM (inactive)
PC-3
  GI50: > 100 µM (inactive)
RPMI-8226
  GI50: 59 µM (inactive)
SF-268
  GI50: > 100 µM (inactive)
SF-295
  GI50: > 100 µM (inactive)
SF-539
  GI50: > 100 µM (inactive)
SK-MEL-2
  GI50: > 100 µM (inactive)
SK-MEL-5
  GI50: 38.8 µM (inactive)
SK-OV-3
  GI50: > 100 µM (inactive)
SN12C
  GI50: > 100 µM (inactive)
SR
  GI50: > 100 µM (inactive)
SW-620
  GI50: 95.1 µM (inactive)
T47D
  GI50: 85.7 µM (inactive)
TK-10
  GI50: > 100 µM (inactive)
U-251
  GI50: 91.6 µM (inactive)
UACC-257
  GI50: 61.8 µM (inactive)
UACC-62
  GI50: > 100 µM (inactive)
UO-31
  GI50: > 100 µM (inactive)
